Patent US20110152093A1, “Herbicidal compositions comprising flufenacet” (Bayer CropScience AG, priority 2009, published 2011)

How the values were obtained:
Format in all cases: in vivo
VIOAR (Viola arvensis) = assay: Post-emergence (PO) action against weeds, greenhouse trial, test method 2; conditions: PO application; g of AS/ha: (A) 240, (B) 1200, (C) 140, (A)+(B)+(C) 240 + 1200 + 140
Method: (§1) In the standard design of the test, seeds of various broad-leaved weed and weed grass biotypes (origins) were sown in a 8-13 cm diameter pot filled with natural soil of a standard field soil (loamy silt; non-sterile) and covered with a covering soil layer of about 1 cm. The pots were then cultivated in a greenhouse (12-16 h of light, temperature day 20-22° C., night 15-18° C.) until the time of application. The pots were treated on a laboratory track sprayer with spray liquors comprising the compositions according to the invention, mixtures of the prior art or components used individually. Application of the active compounds or active compound combinations formulated as WG, WP, EC or otherwise was carried out at the appropriate growth stages of the plants. The application rate for the spray application was 100-600 l of water/ha. After the treatment, the plants were returned to the greenhouses.
(§2) About 3 weeks after the application, the soil action or/and foliar action was assessed visually according to a scale of 0-100% in comparison to an untreated comparative group: 0%=no noticeable effect compared to the untreated comparative group; 100%=full effect compared to the untreated comparative group.
(§3) (notes: the term “seeds” also includes vegetative propagation forms such as, for example, rhizome pieces; abbreviations used: h light=hours of illumination, g of AS/ha=gram of active substance per hectare, l/ha=liter per hectare, S=sensitive, R=resistant) • 1. Pre-emergence action against weeds: seeds of various broad-leaved weed and weed grass biotypes (origins) were sown in a 8-13 cm diameter pot filled with natural soil of a standard field soil (loamy silt; non-sterile) and covered with a covering soil layer of about 1 cm. The pots were then cultivated in a greenhouse (12-16 h of light, temperature day 20-22° C., night 15-18° C.) until the time of application. The pots were treated at the BBCH stage 00-10 of the seeds/plants on a laboratory track sprayer with spray liquors comprising the compositions according to the invention, mixtures or components used individually, as WG, WP, EC or other formulations. The application rate for the spray application was 100-600 l of water/ha. After the treatment, the plants were returned to the greenhouses and, when required, treated with fertilizer and watered. • 2. Post-emergence action against weeds: seeds of various broad-leaved weed and weed grass biotypes (origins) were sown in a 8-13 cm diameter pot filled with natural soil of a standard field soil (loamy silt; non-sterile) and covered with a covering soil layer of about 1 cm. The pots were then cultivated in a greenhouse (12-16 h of light, temperature day 20-22° C., night 15-18° C.) until the time of application. The pots were treated at various BBCH stages between 11-25 of the seeds/plants, i.e. generally between two to three weeks after the start of the cultivation, on a laboratory track sprayer with spray liquors comprising the compositions according to the invention, mixtures or components used individually, as WG, WP, EC or other formulations. The application rate for the spray application was 100-600 l of water/ha. After the treatment, the plants were returned to the greenhouses and, when required, treated with fertilizer and watered. • 3. […]

POAAN (Poa annua) = assay: as above; conditions: PO application; g of AS/ha: (A) 240, (B) 1200, (C) 140, (A)+(B)+(C) 240 + 1200 + 140
Method: as §1, §2, §3

[1] = system: ALOMY sensitive (Alopecurus myosuroides); assay: PE action on resistant weed biotypes, test method 8; conditions: PE application; g of AS/ha: (A) 90, (B) 1200, (C) 140, (A)+(B)+(C) 90 + 1200 + 140, iodosulfuron 10
Method: as §1, §2
(§4) (notes: the term “seeds” also includes vegetative propagation forms such as, for example, rhizome pieces; abbreviations used: h light=hours of illumination, g of AS/ha=gram of active substance per hectare, l/ha=liter per hectare, S=sensitive, R=resistant) • 1. Pre-emergence action against weeds: seeds of various broad-leaved weed and weed grass biotypes (origins) were sown in a 8-13 cm diameter pot filled with natural soil of a standard field soil (loamy silt; non-sterile) and covered with a covering soil layer of about 1 cm. The pots were then cultivated in a greenhouse (12-16 h of light, temperature day 20-22° C., night 15-18° C.) until the time of application. The pots were treated at the BBCH stage 00-10 of the seeds/plants on a laboratory track sprayer with spray liquors comprising the compositions according to the invention, mixtures or components used individually, as WG, WP, EC or other formulations. The application rate for the spray application was 100-600 l of water/ha. After the treatment, the plants were returned to the greenhouses and, when required, treated with fertilizer and watered. • 2. Post-emergence action against weeds: seeds of various broad-leaved weed and weed grass biotypes (origins) were sown in a 8-13 cm diameter pot filled with natural soil of a standard field soil (loamy silt; non-sterile) and covered with a covering soil layer of about 1 cm. The pots were then cultivated in a greenhouse (12-16 h of light, temperature day 20-22° C., night 15-18° C.) until the time of application. The pots were treated at various BBCH stages between 11-25 of the seeds/plants, i.e. generally between two to three weeks after the start of the cultivation, on a laboratory track sprayer with spray liquors comprising the compositions according to the invention, mixtures or components used individually, as WG, WP, EC or other formulations. The application rate for the spray application was 100-600 l of water/ha. After the treatment, the plants were returned to the greenhouses and, when required, treated with fertilizer and watered. • 3. Selective pre-emergence action: seeds of various crop species (origins) were sown in a 8-13 cm diameter pot filled with natural soil of a standard field soil (loamy silt; non-sterile) and covered with a covering soil layer of about 1 cm. The pots were then cultivated in a greenhouse (12-16 h of light, temperature day 20-22° C., night 15-18° C.) until the time of application. The pots were treated at the BBCH stage 00-10 of the seeds/plants on a laboratory track sprayer with spray liquors comprising the compositions according to the invention, mixtures or components used individually, as WG, WP, EC or other formulations. The application rate for the spray application was 100-600 l of water/ha. […]

[2] = system: ALOMY resistant (Alopecurus myosuroides); assay: as above; conditions: PE application; g of AS/ha: (A) 90, (B) 1200, (C) 140, (A)+(B)+(C) 90 + 1200 + 140, iodosulfuron 10
Method: as §1, §2, §4

LOLPE (Lolium perenne) [3] = assay: PE action under various irrigation conditions, test method 6; conditions: PE application, g of AS/ha: (A) 90, (B) 1200, (C) 140, (A)+(B)+(C) 90 + 1200 + 140
Method: as §1, §2, §4

[4] = system: MATCH (Matricaria chamomilla); assay: as above; conditions: PE application; irrigation from below; g of AS/ha: (A) 90, (B) 1200, (C) 140, (A)+(B)+(C) 90 + 1200 + 140
Method: as §1, §2, §4

AVEFA (Avena fatua) = assay: PE action at different soil pH values, test method 10; conditions: PE application, g of AS/ha: (A) 90, (B) 1200, (C) 140, (A)+(B)+(C) 90 + 1200 + 140
Method: as §1, §2

[5] = system: HORVS (Hordeum vulgare, summer barley); assay: Action under various soil conditions (soil types), test method 7, crop compatibility; conditions: g of AS/ha: (A) 90, (B) 1200, (C) 140, (A)+(B)+(C) 90 + 1200 + 140
Method: as §1, §2, §3

LOLPE (Lolium perenne) [6] = assay: Pre-sowing application action against weeds (7 days prior to sowing), test method 5; conditions: application 7 days prior to sowing; g of AS/ha: (A) 90, (B) 1200, (C) 140, (A)+(B)+(C) 90 + 1200 + 140
Method: as §1, §2
(notes: the term “seeds” also includes vegetative propagation forms such as, for example, rhizome pieces; abbreviations used: h light=hours of illumination, g of AS/ha=gram of active substance per hectare, l/ha=liter per hectare, S=sensitive, R=resistant) • 1. Pre-emergence action against weeds: seeds of various broad-leaved weed and weed grass biotypes (origins) were sown in a 8-13 cm diameter pot filled with natural soil of a standard field soil (loamy silt; non-sterile) and covered with a covering soil layer of about 1 cm. The pots were then cultivated in a greenhouse (12-16 h of light, temperature day 20-22° C., night 15-18° C.) until the time of application. The pots were treated at the BBCH stage 00-10 of the seeds/plants on a laboratory track sprayer with spray liquors comprising the compositions according to the invention, mixtures or components used individually, as WG, WP, EC or other formulations. The application rate for the spray application was 100-600 l of water/ha. After the treatment, the plants were returned to the greenhouses and, when required, treated with fertilizer and watered. • 2. Post-emergence action against weeds: seeds of various broad-leaved weed and weed grass biotypes (origins) were sown in a 8-13 cm diameter pot filled with natural soil of a standard field soil (loamy silt; non-sterile) and covered with a covering soil layer of about 1 cm. The pots were then cultivated in a greenhouse (12-16 h of light, temperature day 20-22° C., night 15-18° C.) until the time of application. […]

STEME (Stellaria media) = assay: Action under various soil conditions (soil types), test method 7; conditions: IU/EC73 soil versus IU soil; g of AS/ha: (A) 90, (B) 1200, (C) 140, (A)+(B)+(C) 90 + 1200 + 140
Method: as §1, §2, §4

[7] = system: MATCH (Matricaria chamomilla); assay: as above; conditions: g of AS/ha: (A) 90, (B) 1200, (C) 140, (A)+(B)+(C) 90 + 1200 + 140
Method: as §1, §2, §4

[8] = system: HORVS (Hordeum vulgare, summer barley); assay: Selective post-emergence action (crop compatibility), greenhouse trial, test method 4; conditions: PO application; g of AS/ha: (A) 240, (B) 1200, (C) 140, (A)+(B)+(C) 240 + 1200 + 140
Method: as §1, §2
(notes: the term “seeds” also includes vegetative propagation forms such as, for example, rhizome pieces; abbreviations used: h light=hours of illumination, g of AS/ha=gram of active substance per hectare, l/ha=liter per hectare, S=sensitive, R=resistant) • 1. Pre-emergence action against weeds: seeds of various broad-leaved weed and weed grass biotypes (origins) were sown in a 8-13 cm diameter pot filled with natural soil of a standard field soil (loamy silt; non-sterile) and covered with a covering soil layer of about 1 cm. The pots were then cultivated in a greenhouse (12-16 h of light, temperature day 20-22° C., night 15-18° C.) until the time of application. […]

| SMILES | activity VIOAR (visual, scale 0-100%) (VIOAR (Viola arvensis)) [%] | activity POAAN (visual, scale 0-100%) (POAAN (Poa annua)) [%] | activity ALOMY sensitive [1] [%] | activity ALOMY resistant [2] [%] | activity LOLPE (LOLPE (Lolium perenne) [3]; irrigation from above) [%] | activity LOLPE (LOLPE (Lolium perenne) [3]; irrigation from below) [%] | activity MATCH [4] [%] | activity AVEFA pH 7.4 (AVEFA (Avena fatua); soil pH 7.4) [%] | activity AVEFA pH 8.4 (AVEFA (Avena fatua); soil pH 8.4) [%] | activity HORVS IU soil (crop plant) ([5]; IU soil) [%] | Difference of the soil types, HORVS ([5]; IU/EC73 soil versus IU soil) [%] | activity LOLPE (LOLPE (Lolium perenne) [6]) [%] | Difference of the soil types, STEME (STEME (Stellaria media)) [%] | activity MATCH IU soil ([7]; IU soil) [%] | Difference of the soil types, MATCH ([7]; IU/EC73 soil versus IU soil) | activity MATCH IU/EC73 soil ([7]; IU/EC73 soil) [%] | activity HORVS (crop plant; visual, scale 0-100%) [8] [%] |
| --- | --- | --- | --- | --- | --- | --- | --- | --- | --- | --- | --- | --- | --- | --- | --- | --- | --- |
| CSc1nnc(C(C)(C)C)c(=O)n1N [(C) metribuzin, 4-amino-6-(1,1-dimethylethyl)-3-(methylthio)-1,2,4-triazin-5(4H)-one] | 90 | 79 | 85 | 80 | 55 | 48 | 60 | 90 | 90 | 20 | −20 | 100 | −70 | 0 | +15% | 15 | 70 |
| COc1nc(C)nc(NC(=O)NS(=O)(=O)c2cc(I)ccc2C(=O)O)n1 [(C)^1 iodosulfuron, iodosulfuron] | – | – | 90 | 40 | – | – | – | – | – | – | – | – | – | – | – | – | – |
